Test results: patent US10617117B2, “Insect repellent composition and method of use” (NEO-INNOVA HEALTHCARE LIMITED, priority 2015, dated 2020)
Entries after “also recorded” stand apart in the source; their conditions may differ.

Assays:
[1] = Stability tests, accelerated storage 54° C. for 14 days (discoloration of vanillin); assay type: physicochemical; settings: room temperature and 54° C.; antioxidant added to vanillin-containing composition
Procedure: […] The front line accelerated conditions recommend testing at 54° C. for 14 days (see BPR 528/2012: Volume I. Part A, Chapter III: Requirements for Biocide Products, Version 1.1 Nov. 2014).

[2] = tested on: Aedes Aegypti; settings: at circa 50% concentrations, FIG. 1; cited from earlier work
[3] = tested on: Culex spp., Aedes spp., Mansonia spp., and Verrallina spp.; settings: compared with Anopheles spp.; cited from earlier work
[4] = human skin; cited from earlier work
[5] = tested on: biting flies, such as a mosquito; settings: in vivo; cited from earlier work
[6] = tested on: Aedes aegypti female mosquitoes; experiment: laboratory arm or hand in cage test (complete protection time); assay type: in vivo; settings: Citriodiol as active substance, with vanillin, FIG. 14
Procedure: Complete protection times are calculated as the number of minutes (or hours) elapsed between the time of repellent application and the first mosquito landing or probing. Complete Protection Times are reported herein as a median value of protection time given by each individual. Complete Protection Times are abbreviated herein as CPTs. […]
Complete protection time provided by each product was evaluated by following hand in cage studies as per a modified WHO protocol (HTM/NTD/WHOPES/2009.4).
Typically, the test consisted of inserting a repellent treated arm into a cage measuring 35 cm on each side, containing laboratory bred 200 numbers of non-blood fed Aedes Aegypti mosquitoes which were approximately 5-7 days old and the elapsed time to first landing or probing (which refers to an insect landing and penetrating the skin with its mouthparts, without ingesting blood) was determined. […]
Readiness of the mosquitoes to bite (biting pressure) was checked by inserting un-treated arm for 1 minute prior to inserting treated arm at each 30-minute interval. […] Complete protection time was calculated as the number of minutes (or hours) elapsed between the time of repellent application and the first mosquito landing or probing. […]

| Structure (SMILES) | photosensitisation and secondary oxidation (discoloration) of vanillin [1] | CPTs compared with DEET [5] | other results |
| --- | --- | --- | --- |
| COc1ccc(O)c(C(C)(C)C)c1 [BHA] | negative |  |  |
| CCN(CC)C(=O)c1cccc(C)c1 [DEET, N,N-Diethyl-3-methylbenzamide] |  |  | CPT at which activity plateaus [2]: 5 to 6 h; protection against different mosquito genera [3]: longer against these genera than provided against Anopheles spp.; absorption through skin [4]: absorbed through human skin |
| CCCCN(CCC(=O)OCC)C(C)=O [IR3535, ethyl butylacetylaminopropionate] |  | neither ethyl butylacetylaminopropionate (IR3535) nor Picaridin (KBR 3023) has demonstrated meaningful superiority to DEET |  |
| CCC(C)OC(=O)N1CCCCC1CCO (stereo not drawn) [Picaridin] |  | neither ethyl butylacetylaminopropionate (IR3535) nor Picaridin (KBR 3023) has demonstrated meaningful superiority to DEET |  |
| CCCOC(=O)c1cc(O)c(O)c(O)c1 [propyl gallate] | negative |  |  |
| O=S([O-])O.[Na+] [sodium bisulphite] | Lack of photosensitisation and secondary oxidation of vanillin; also recorded: one significant exception |  | effect of addition of 1% antioxidant on efficacy (CPTs) [6]: still further significant improvement in efficacy |
